Assay results as given in patent US20150148551A1, “GENISTEIN FOR REDUCING LEVELS OF STORAGE COMPOUNDS IN THE TREATMENT AND/OR PREVENTION OF LYSOSOMAL STORAGE DISEASES (LSDS)” (3G THERAPEUTICS, INC., priority 2012, published 2015).

Legend:
Type in all cases: cell-based, human
[1] = test system: TBP; test: DNA microarray, TBP reference gene expression in fibroblasts exposed to genistein
Description: (§1) The experiments were conducted to characterise the transcriptomic profile of human fibroblast cells exposed to genistein, and in particular to determine the expression of genes encoding lysosomal enzymes involved in metabolism (i.e. synthesis and degradation) of organic substances. The absence or deficiency of these enzymes' activity is responsible for occurrence of various lysosomal storage diseases (LSD) (including MPS). The tested hypothesis assumed that genistein influences the expression of many genes, among which there are genes coding for enzymes required in metabolism of compounds, which are pathologically stored in LSD. The results provide important information regarding genistein action on the molecular level within the range of gene expression modulation by this substance. The experiment was conducted in biological quintuplicates. Human dermal fibroblasts (HDFa) were exposed in vitro for 1, 24 or 48 hours to: 30, 60 or 100 μM of genistein; 0.05% DMSO (K1); or were untreated (control cells) (K2), and total RNA was isolated and analysed.
(§2) Fibroblast cells were grown in Dulbecco (DMEM) medium supplemented with 10% fetal bovine serum (FBS) with the addition of 1% antibiotics and anti-fungal agents at 37° C. in humidified atmosphere of 5% CO2, until the required confluency was obtained.
(§3) To determine the effect of tested compound on the transcriptom of the fibroblast cells, the growth medium was replaced with fresh medium, either non-supplemented (0.05% DMSO), or containing genistein (30, 60 or 100 μM, in 0.05% DMSO). The exposure was done for 1, 24 or 48 hours.
(§4) Total RNA was isolated from fibroblasts using High Pure RNA Isolation Kit according to the protocol and then it was quantitatively evaluated using Quant-It™ RiboGreen® Assay Kit.
(§5) Biotinylated cRNA was prepared using Ambion Total PrepAmp Kit for Illumina arrays.
(§6) Standard hybridization and quantitative image analysis procedures—Illumina hybridization protocol and Illumina scanning protocol, were used.
(§7) Processing of the results was done during data definition, including: background correction (using background subtraction method), normalization (using quantile normalization algorithm with Illumina GenomeStudio software package: gene expression module version 1.9.0) and summarization (using method, which sums the values of signal intensities from a set of probes).

[2] = test system: ST3GAL2; test: DNA microarray, ST3GAL2 expression in fibroblasts exposed to genistein
Description: as §1, §2, §3, §4, §5, §6, §7

[3] = test system: CTSF; test: DNA microarray, CTSF expression in fibroblasts exposed to genistein; details: for CTSF fold change Average: 48 h vs DMSO
Description: as §1, §2, §3, §4, §5, §6, §7

O=c1c(-c2ccc(O)cc2)coc2cc(O)cc(O)c12 [genistein, 4′,5,7-trihydroxy-3-phenylchromen-4-one]
TBP fold change Average 1h30/1hK1 ([1]; 30 μM, 1 h vs 0.05% DMSO): 0.974 fold change | TBP fold change Average 24h30/24hK1 ([1]; 30 μM, 24 h vs 0.05% DMSO): 0.8816 fold change | TBP fold change Average 48h30/48hK1 ([1]; 30 μM, 48 h vs 0.05% DMSO): 0.9265 fold change | TBP fold change Average 1h60/1hK1 ([1]; 60 μM, 1 h vs 0.05% DMSO): 0.9183 fold change | TBP fold change Average 24h60/24hK1 ([1]; 60 μM, 24 h vs 0.05% DMSO): 0.7892 fold change | TBP fold change Average 48h60/48hK1 ([1]; 60 μM, 48 h vs 0.05% DMSO): 0.9926 fold change | TBP fold change Average 1h100/1hK1 ([1]; 100 μM, 1 h vs 0.05% DMSO): 0.9531 fold change | TBP fold change Average 24h100/24hK1 ([1]; 100 μM, 24 h vs 0.05% DMSO): 0.8303 fold change | TBP fold change Average 48h100/48hK1 ([1]; 100 μM, 48 h vs 0.05% DMSO): 0.8862 fold change | ST3GAL2 fold change Average 1h30/1hK1 ([2]; 30 μM, 1 h vs 0.05% DMSO): 1.155 fold change | ST3GAL2 fold change Average 24h30/24hK1 ([2]; 30 μM, 24 h vs 0.05% DMSO): 0.7505 fold change | ST3GAL2 fold change Average 48h30/48hK1 ([2]; 30 μM, 48 h vs 0.05% DMSO): 0.797 fold change | ST3GAL2 fold change Average 1h60/1hK1 ([2]; 60 μM, 1 h vs 0.05% DMSO): 1.467 fold change | ST3GAL2 fold change Average 24h60/24hK1 ([2]; 60 μM, 24 h vs 0.05% DMSO): 0.5068 fold change | ST3GAL2 fold change Average 1h100/1hK1 ([2]; 100 μM, 1 h vs 0.05% DMSO): 1.338 fold change | ST3GAL2 fold change Average 24h100/24hK1 ([2]; 100 μM, 24 h vs 0.05% DMSO): 0.6299 fold change | ST3GAL2 fold change Average 48h100/48hK1 ([2]; 100 μM, 48 h vs 0.05% DMSO): 0.7215 fold change | CTSF fold change Average 1h30/1hK1 ([3]; 30 μM, 1 h vs 0.05% DMSO): 1.0096 fold change | CTSF fold change Average ([3]; 30 μM): 1.417 fold change | CTSF fold change Average 1h60/1hK1 ([3]; 60 μM, 1 h vs 0.05% DMSO): 0.9505 fold change | CTSF fold change Average ([3]; 60 μM): 1.8 fold change | CTSF fold change Average 1h100/1hK1 ([3]; 100 μM, 1 h vs 0.05% DMSO): 0.9458 fold change | CTSF fold change Average ([3]; 100 μM): 2.066 fold change
